Results as given in patent publication US20190022165A1, “METHODS AND COMPOSITIONS FOR THE TREATMENT AND PREVENTION OF PULMONARY ARTERIAL HYPERTENSION” (STEALTH BIOTHERAPEUTICS CORP, priority 2016, published 2019).

Legend:
[1] = system: several mammalian cell types; conditions: cited from earlier work
[2] = system: heart failure subjects with reduced ejection fraction (HFrEF≤35%); test: Single ascending dose trial, 2-D echocardiography: right ventricular fractional area change (RV FAC); assay type: in vivo, human; conditions: for RV FAC Δ from baseline, Mean Active Group with 95% CI: Cohort 3, 0.25 mg/kg/hour IV 4-hour infusion
Experimental: (§1) A single-center, randomized, double-blind, placebo-controlled, single ascending dose trial of D-Arg-2′6′-Dmt-Lys-Phe-NH2 was performed in heart failure subjects aged 45-80 years (n=36) with reduced ejection fraction (HFrEF≤35%). Three sequential dose-escalation cohorts were enrolled and administered a single intravenous (IV) dose of D-Arg-2′6′-Dmt-Lys-Phe-NH2 by a 4-hour infusion. In each cohort, 8 subjects were randomly assigned to receive D-Arg-2′6′-Dmt-Lys-Phe-NH2 (active group) and 4 to receive placebo (placebo group infused with 0.9% saline solution in the same manner as the D-Arg-2′6′-Dmt-Lys-Phe-NH2 active group). Eligible subjects were admitted to the research unit on Day 1, were randomized and received the study drug infusion on Day 2 and were discharged on Day 3. Subjects returned to the research unit on Day 7 (+3) for follow-up. The dose levels of D-Arg-2′6′-Dmt-Lys-Phe-NH2 in Cohorts 1, 2, and 3 were 0.005, 0.05, and 0.25 mg/kg/hour, respectively.
(§2) A single dose of the aromatic-cationic peptide, D-Arg-2′6′-Dmt-Lys-Phe-NH2, was administered intravenously (IV) at 0.005 mg/kg/hour (Cohort 1; low dose), 0.05 mg/kg/hour (Cohort 2; intermediate dose), and 0.25 mg/kg/hour (Cohort 3; high dose) over 4 hours at 60 mL/hour.
(§3) Echocardiograms (2-D) were performed on Day 2 at pre-dose (0-hr), mid-dose (2-hr), end-dose (4-hr), and 6 hours, 8 hours, 12 hours after infusion initiation, and at Day 3 at 24 hours after infusion initiation in every subject. Primary echo endpoints included end-diastolic volume (EDV) and EDV index, and end-systolic volume (ESV) and ESV index. Secondary echo endpoints included left atrial (LA) volume, right ventricular fractional area change (RV FAC), and right ventricular systolic pressure (RVSP). Exploratory echo endpoints included global longitudinal strain.
(§4) All statistical analyses, summary tables and data listings were prepared using SAS software Version 9.2 or higher. Overall differences in pharmacokinetic parameters of systemic exposure (e.g., Cmax and AUC) across the 3 different dosing regimens were evaluated by ANOVA. In general, significance was determined at the p<0.05 level. For continuous variables, descriptive statistics (sample size, mean, standard deviation, median, minimum, and maximum values) were determined. For discrete variables, frequency distributions were generated.

[3] = system: heart failure subjects with reduced ejection fraction (HFrEF≤35%); test: Single ascending dose trial, 2-D echocardiography: right ventricular systolic pressure (RVSP); assay type: in vivo, human
Experimental: as §1, §2, §3, §4

[4] = Cohort 3, 0.25 mg/kg/hour, 6 Hours
[5] = Cohort 3, 0.25 mg/kg/hour, 8 Hours
[6] = Cohort 3, 0.25 mg/kg/hour, 12 Hours
[7] = Cohort 3, 0.25 mg/kg/hour, 24 Hours
[8] = Cohort 3, 0.25 mg/kg/hour, End-Dose
[9] = Cohort 3, 0.25 mg/kg/hour, Mid-Dose

Which “penetration of the plasma membrane” value [1] does the source give for 2′,6′-Dmt-D-Arg-Phe-Lys-NH2 here?
The value was “readily penetrates the plasma membrane of several mammalian cell types in an energy-independent manner”.

What does the source list for D-Arg-2′6′-Dmt-Lys-Phe-NH2?
right ventricular fractional area change (RV FAC), in words ([2]; Cohort 3, 0.25 mg/kg/hour): overall improvement in right ventricular fractional area change (RV FAC); RV FAC Δ from baseline, Mean Active Group with 95% CI ([2]; 6 Hours): 2.6 (−0.7, 5.9) %; RV FAC Δ from baseline, Mean Active Group with 95% CI ([2]; 8 Hours): 3.4 (−0.7, 7.5) %; RV FAC Δ from baseline, Mean Active Group with 95% CI ([2]; 12 Hours): 1.7 (−4.0, 7.4) %; RV FAC Δ from baseline, Mean Active Group with 95% CI ([2]; 24 Hours): 2.5 (−2.0, 7.0) %; RV FAC Δ from baseline, Mean Active Group with 95% CI ([2]; End-Dose): 0.3 (−4.8, 5.5) %; RV FAC Δ from baseline, Mean Active Group with 95% CI ([2]; Mid-Dose): 1.6 (−2.6, 5.8) %; RV FAC Δ from baseline, Mean Difference (active vs pooled placebo) [2, 4]: 3.8%; RV FAC Δ from baseline, Mean Difference (active vs pooled placebo) [2, 5]: 4.6%; RV FAC Δ from baseline, Mean Difference (active vs pooled placebo) [2, 6]: 8.9%; RV FAC Δ from baseline, Mean Difference (active vs pooled placebo) [2, 7]: 3.8%; RV FAC Δ from baseline, Mean Difference (active vs pooled placebo) [2, 8]: 0.3%; RV FAC Δ from baseline, Mean Difference (active vs pooled placebo) [2, 9]: 3.8%; RVSP Δ from baseline, Mean Active Group ([3]; Cohort 2, 0.05 mg/kg/hour IV 4-hour infusion, 6 Hours): −4.8 mmHg; RVSP Δ from baseline, Mean Active Group ([3]; Cohort 2, 0.05 mg/kg/hour IV 4-hour infusion, 8 Hours): −6.5 mmHg; RVSP Δ from baseline, Mean Active Group ([3]; Cohort 2, 0.05 mg/kg/hour IV 4-hour infusion, 12 Hours): −5.6 mmHg; RVSP Δ from baseline, Mean Active Group ([3]; Cohort 2, 0.05 mg/kg/hour IV 4-hour infusion, 24 Hours): −5.3 mmHg; RVSP Δ from baseline, Mean Active Group ([3]; Cohort 2, 0.05 mg/kg/hour IV 4-hour infusion, End-Dose): −9.9 mmHg; RVSP Δ from baseline, Mean Active Group ([3]; Cohort 2, 0.05 mg/kg/hour IV 4-hour infusion, Mid-Dose): −8.5 mmHg; RVSP Δ from baseline, Mean Difference (active vs pooled placebo) ([3]; Cohort 2, 0.05 mg/kg/hour, 6 Hours): −4.4 mmHg; RVSP Δ from baseline, Mean Difference (active vs pooled placebo) ([3]; Cohort 2, 0.05 mg/kg/hour, 8 Hours): −4.4 mmHg; RVSP Δ from baseline, Mean Difference (active vs pooled placebo) ([3]; Cohort 2, 0.05 mg/kg/hour, 12 Hours): −9.7 mmHg; RVSP Δ from baseline, Mean Difference (active vs pooled placebo) ([3]; Cohort 2, 0.05 mg/kg/hour, 24 Hours): −5.0 mmHg; RVSP Δ from baseline, Mean Difference (active vs pooled placebo) ([3]; Cohort 2, 0.05 mg/kg/hour, End-Dose): −19.1 mmHg; RVSP Δ from baseline, Mean Difference (active vs pooled placebo) ([3]; Cohort 2, 0.05 mg/kg/hour, Mid-Dose): −8.2 mmHg; pulmonary pressures (RVSP) relative to baseline, in words ([3]; Cohort 2, 0.05 mg/kg/hour, at end dose): significant decrease in pulmonary pressures (RVSP); RVSP Δ from baseline, Mean Active Group ([3]; Cohort 3, 0.25 mg/kg/hour IV 4-hour infusion, 6 Hours): −11.7 mmHg; RVSP Δ from baseline, Mean Active Group ([3]; Cohort 3, 0.25 mg/kg/hour IV 4-hour infusion, 8 Hours): −1.3 mmHg; RVSP Δ from baseline, Mean Active Group ([3]; Cohort 3, 0.25 mg/kg/hour IV 4-hour infusion, 12 Hours): 2.6 mmHg; RVSP Δ from baseline, Mean Active Group ([3]; Cohort 3, 0.25 mg/kg/hour IV 4-hour infusion, 24 Hours): −1.6 mmHg; RVSP Δ from baseline, Mean Active Group ([3]; Cohort 3, 0.25 mg/kg/hour IV 4-hour infusion, End-Dose): −1.2 mmHg; RVSP Δ from baseline, Mean Active Group ([3]; Cohort 3, 0.25 mg/kg/hour IV 4-hour infusion, Mid-Dose): 0.9 mmHg; RVSP Δ from baseline, Mean Difference (active vs pooled placebo) [3, 4]: −11.3 mmHg; RVSP Δ from baseline, Mean Difference (active vs pooled placebo) [3, 5]: 0.9 mmHg; RVSP Δ from baseline, Mean Difference (active vs pooled placebo) [3, 6]: −1.5 mmHg; RVSP Δ from baseline, Mean Difference (active vs pooled placebo) [3, 7]: −1.3 mmHg; RVSP Δ from baseline, Mean Difference (active vs pooled placebo) [3, 8]: −10.3 mmHg; RVSP Δ from baseline, Mean Difference (active vs pooled placebo) [3, 9]: 1.1 mmHg
